Results on two molecules are retold here after patent publication US10766883B2, “Aminopyrazoles as janus kinase inhibitors” (Merck Sharp & Dohme Corp., priority 2016, dated 2020).

One assay addresses Tyk2 (Homo sapiens (Human), UniProt P29597). Nature of the assay: JAK biochemical HTRF enzyme assay, Tyk2. As to conditions: reference compound, mean +/- spread across assay runs. As to the method:
(§1) The ability of compounds to inhibit the activity of JAK1, JAK2, JAK3, and Tyk2 was measured using a recombinant purified GST-tagged catalytic domain for each enzyme (InVitrogen/Life Technologies/ThermoFisher Scientific Inc., Waltham, Mass., USA; catalogue numbers: M4290(JAK1), M4290(JAK2), M4290(JAK3), M4290(Tyk2)) in an HTRF format biochemical assay. The reactions employed a common peptide substrate, LCB-[…]-NH2 (Merck Sharp & Dohme, Kenilworth, N.J., USA).
(§2) The basic assay protocol is as follows: First, 250 nL of diluted compounds in DMSO were dispensed into the wells of a dry 384-well Black plate (GreinerFluotrac™ catalog number: 781076; Greiner Bio-One GmbH, Frickenhausen, Germany) using a Labcyte Echo® 555 acoustic dispenser (Clarcyte, Inc, Sunnyvale, Calif., USA). Subsequent reagent additions employed an Agilent™ Bravo™ liquid handling system (Aligent Technologies, Santa Clara, Calif., USA). […] After equilibration, 2 μL of 10×ATP in 1× assay buffer was added to initiate the kinase reaction and the plates were shaken and then incubated at ambient temperature for 120 minutes. […] HTRF signal=10,000*665 nm reading/615 nm reading. After normalization to untreated controls, the percent inhibition of the HTRF signal at each compound concentration was calculated. […]

The target of a further assay is JAK2 (Homo sapiens (Human), UniProt O60674). Nature of the assay: JAK biochemical HTRF enzyme assay, JAK2. The settings on record: reference compound, mean +/- spread across assay runs. As to the method: (§3) The ability of compounds to inhibit the activity of JAK1, JAK2, JAK3, and Tyk2 was measured using a recombinant purified GST-tagged catalytic domain for each enzyme (InVitrogen/Life Technologies/ThermoFisher Scientific Inc., Waltham, Mass., USA; catalogue numbers: M4290(JAK1), M4290(JAK2), M4290(JAK3), M4290(Tyk2)) in an HTRF format biochemical assay.
Chain of JAK2 (O60674 849-1124): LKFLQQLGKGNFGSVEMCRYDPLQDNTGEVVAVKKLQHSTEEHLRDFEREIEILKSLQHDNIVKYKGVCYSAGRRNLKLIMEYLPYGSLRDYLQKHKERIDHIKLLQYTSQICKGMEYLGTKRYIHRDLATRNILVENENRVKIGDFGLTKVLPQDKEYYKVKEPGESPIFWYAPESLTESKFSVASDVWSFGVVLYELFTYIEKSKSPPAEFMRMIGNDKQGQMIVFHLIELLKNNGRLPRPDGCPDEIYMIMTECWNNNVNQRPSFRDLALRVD
(§4) Subsequent reagent additions employed an Agilent™ Bravo™ liquid handling system (Aligent Technologies, Santa Clara, Calif., USA). […] After equilibration, 2 μL of 10×ATP in 1× assay buffer was added to initiate the kinase reaction and the plates were shaken and then incubated at ambient temperature for 120 minutes. […] After normalization to untreated controls, the percent inhibition of the HTRF signal at each compound concentration was calculated. The plot of percent inhibition versus the log of compound concentration was fit with a 4-parameter dose response equation to calculate IC50 values.

The test system of assay [1] is Interleukin 4 (IL4)—JAK1/JAK3—STAT6 Pathway. Nature of the assay: IL4 CellSensor beta-lactamase reporter assay (STAT6-bla RA-1 cells). As to conditions: reference compound, mean +/- spread across assay runs. The format is cell-based. From the text:
(§5) Inhibition of the activity of JAK kinases (JAK1, JAK2, JAK3 and TYK2) in intact cells was quantified in antagonist mode using CellSensor® transcriptional reporter technology (Life Technologies/ThermoFisher Scientific Inc., Waltham, Mass., USA; https://www.thermofisher.com/us/en/home/industrial/pharma-biopharma drug-discovery-development/target-and-lead-identification-and-validation/pathway-biology/cellular-pathway-analysis/cellsensor-cell-lines.html), in three independent cell lines engineered to detect IL4, IL6 and EPO signaling. In brief, CellSensor® cell lines (see details below for each assay) carrying a stably integrated β-Lactamase reporter gene under control of specific cis-regulatory STAT elements responsive to the pathway being monitored were pre-treated with test compounds serially diluted in DMSO (see preparation and dosing of compounds and agonist cytokines section). Following incubation with compounds, IL4, IL6, or EPO were added to each cognate cell line at a concentration equal to a dose necessary to achieve 80% of the maximal response (EC80).
(§6) Incubation with compounds, cytokines and LiveBLAzer™ were carried out at 37° C. in a tissue culture incubator maintained at 90% humidity and 5% CO2.
Interleukin 4 (IL4)—JAK1/JAK3—STAT6 Pathway […]
(In general: In a reporter assay the amount or activity of a reporter protein is the signal.)

The next assay concerns EPO/Jak2/Stat5 pathway. The assay can be described thus: EPO CellSensor beta-lactamase reporter assay (irf1-bla TF-1 cells). The class given is cell-based, human.
Source text: as §5, with “section).” for “section). Following incubation with compounds, IL4, IL6, or EPO were added to each cognate cell line at a concentration equal to a dose necessary to achieve 80% of the maximal response (EC80).”
as §6
Erythropoietin (EPO)—JAK2—STAT5 Pathway
CellSensor irf1-bla TF-1 cells carry a stably integrated β-Lactamase reporter gene under control of the STAT5 Response Elements present in the Interferon Regulatory Factor I (IRF1) gene promoter.
(§7) Each CellSensor® cell line was subsequently plated as per supplier's instructions (30,000 cells in 32 μL/well) and mixed with the compound. Following a 60 minute incubation, cells were subsequently stimulated by addition of 8 μL of cognate cytokine (EC80 dose of IL4, IL6 and EPO) and incubated for an additional 3 hours, before adding LiveBLAzer™-FRET B/G substrate.
(§8) The IL-6 assay identifies agents that inhibit the beta-lactamase reporter activity initiated through stimulation of the IL-6R/JAK1/2/Stat3 pathway with recombinant human IL-6. The EPO assay identifies agents that inhibit the beta-lactamase reporter activity initiated through stimulation of the EPO/Jak2/Stat5 pathway with human EPO. Inhibition of EPO signaling leads to an inability to recover from anemia of chronic disease. […] That is, it is desirable for the EPO/IL-6 IC50 ratios to be a relatively large number.

The test system of assay [2] is IL-6R/JAK1/2/Stat3 pathway. The assay can be described thus: IL6 CellSensor beta-lactamase reporter assay (SIE-bla ME-180 cells). As to conditions: Homo sapiens, ME-180; reference compound, mean +/- spread across assay runs; read-out: IL6 CellSensor assay IC50. The class given is cell-based.
Source text: as §5, with “section).” for “section). Following incubation with compounds, IL4, IL6, or EPO were added to each cognate cell line at a concentration equal to a dose necessary to achieve 80% of the maximal response (EC80).”
as §6
Interleukin 6 (IL6)—JAK1/JAK2—STAT4 Pathway
CellSensor™ SIE-bla ME-180 cells carrying a stably integrated β-Lactamase reporter gene under control of the Sis-Inducible Element (SIE).
as §7, §8

The target of a further assay is JAK3 (Homo sapiens (Human), UniProt P52333). Nature of the assay: JAK biochemical HTRF enzyme assay, JAK3. As to conditions: reference compound, mean +/- spread across assay runs. As to the method:
as §1, §2

Another assay has as its target JAK1 (Homo sapiens (Human), UniProt P23458). Nature of the assay: JAK biochemical HTRF enzyme assay, JAK1. The settings on record: reference compound, mean +/- spread across assay runs. As to the method:
as §3, §4
On the technique in general: TR-FRET usually uses a lanthanide donor and a delayed reading to cut background.

Chain of JAK3 (P52333 822-1111): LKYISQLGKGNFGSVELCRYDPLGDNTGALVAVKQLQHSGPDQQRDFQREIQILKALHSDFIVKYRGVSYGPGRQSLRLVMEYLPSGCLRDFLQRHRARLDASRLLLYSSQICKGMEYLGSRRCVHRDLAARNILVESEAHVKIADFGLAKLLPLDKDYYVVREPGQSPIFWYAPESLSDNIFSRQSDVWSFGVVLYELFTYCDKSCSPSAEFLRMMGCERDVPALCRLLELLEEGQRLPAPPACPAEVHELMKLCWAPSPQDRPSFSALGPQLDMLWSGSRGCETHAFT
Chain of Tyk2 (P29597 897-1176): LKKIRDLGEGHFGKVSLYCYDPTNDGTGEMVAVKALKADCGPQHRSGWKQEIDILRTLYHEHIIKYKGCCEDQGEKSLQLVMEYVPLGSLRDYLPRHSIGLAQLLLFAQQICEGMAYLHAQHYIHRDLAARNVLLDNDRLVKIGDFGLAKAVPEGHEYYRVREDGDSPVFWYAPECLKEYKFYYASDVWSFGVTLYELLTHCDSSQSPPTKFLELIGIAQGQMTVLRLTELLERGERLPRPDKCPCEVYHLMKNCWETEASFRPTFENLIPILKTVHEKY
Chain of JAK1 (P23458 875-1153): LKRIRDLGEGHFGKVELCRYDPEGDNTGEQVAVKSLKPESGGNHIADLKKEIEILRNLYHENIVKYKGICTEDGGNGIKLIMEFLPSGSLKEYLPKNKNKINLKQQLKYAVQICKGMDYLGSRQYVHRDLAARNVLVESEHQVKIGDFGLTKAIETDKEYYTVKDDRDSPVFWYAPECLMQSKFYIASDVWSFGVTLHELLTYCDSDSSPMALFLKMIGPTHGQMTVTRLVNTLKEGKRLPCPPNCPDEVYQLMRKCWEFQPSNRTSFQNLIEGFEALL

The term IC50 denotes the midpoint of a concentration-inhibition curve. With `CS(=O)(=O)c1ccc(Nc2nn([C@H]3CCCC[C@@H]3C#N)c3cc[nH]c(=O)c23)cc1` [Reference Compound No. 2, (1S,2S)-2-(3-{[4-(methylsulfonyl)phenyl]amino}-4-oxo-4,5-dihydro-1H-pyrazolo[4,3-c]pyridin-1-yl)cyclohexanecarbonitrile, reference compound], the IC50 was determined as 0.28 nM against Tyk2; 1 nM at JAK2; 11.1 nM in assay [1]; 39.5 nM in the assay on EPO/Jak2/Stat5 pathway (Homo sapiens, TF-1, reference compound, mean +/- spread across assay runs, read-out: EPO CellSensor assay IC50); 21 nM in assay [2]; 21.9 nM at JAK3. Besides, it took 0.17 nM to reach half-maximal inhibition at JAK1 (IC50). In addition, in the assay on EPO/Jak2/Stat5 pathway (across all three CellSensor assays), the “potency spread across the IL6, EPO and IL4 CellSensor assays” value is given as “two to three”.

For `CN(C)[C@H]1CC[C@H](n2cc(C(N)=O)c(Nc3ccc(Cl)cc3)n2)[C@@H](C#N)C1` (single isomer, unassigned) [Reference Compound No. 1, 3-[(4-chlorophenyl)amino]-1-[(1S,2S,4S or 1R,2R,4R)-2-cyano-4-(dimethylamino)cyclohexyl]-1H-pyrazole-4-carboxamide], the IC50 against Tyk2 came to 14 nM; in assay [1] it was 25.7 nM; against JAK3 it was 1350 nM; at JAK1 it was 1.47 nM.
